Reference: article PMC3058569 (Chemical biology & drug design, 2010)
≈ marks a conversion by molar mass, not a printed value. Where “and” joins values, the source holds several entries; their conditions need not be identical. Equal entries are not always repeated.

Columns and labels:
[1] = tested on: L. donovani promastigotes; assay: Antileishmanial activity, Alamar Blue assay; format: cell-based, Leishmania donovani; details: for IC50 / IC90: Leishmania donovani; for IC50: read-out: Antileishmanial L. donovani IC50; for IC90: read-out: Antileishmanial L. donovani IC90; for Antileishmanial L. donovani IC50 / Antileishmanial L. donovani IC90: promastigotes; for Antileishmanial L. donovani IC90: 90% inhibition of leishmanial growth
Cryptococcus neoformans = assay: Antifungal susceptibility testing, modified CLSI method; format: cell-based
A. fumigatus = assay: as above; format: cell-based; details: Aspergillus fumigatus
[2] = tested on: P. falciparum chloroquine resistant (W2) clone; assay: microbe, parasite or virus in culture; format: cell-based, Plasmodium falciparum; details: for IC50: Plasmodium falciparum, W2, read-out: Antimalarial P. falciparum W2 Clone IC50
[3] = tested on: P. falciparum chloroquine sensitive (D6) clone; assay: In vitro antimalarial activity, plasmodial LDH activity; format: cell-based, Plasmodium falciparum; details: for IC50: Plasmodium falciparum, D6, read-out: Antimalarial P. falciparum D6 Clone IC50
[4] = tested on: Mycobacterium intracellulare; assay: Susceptibility by modified Alamar Blue procedure; format: cell-based
C. glabrata = assay: Antifungal susceptibility testing, modified CLSI method; format: cell-based, Candida glabrata; details: 50% inhibition of fungal growth
[5] = tested on: methicillin resistant S. aureus (MRS); assay: Antibacterial susceptibility testing, modified CLSI method; format: cell-based, Staphylococcus aureus; details: for IC50 Antibacterial MRS: 50% inhibition of bacterial growth
[6] = tested on: BSL-1 and 2 model organisms (fungi, bacteria, P. falciparum, L. donovani); assay: Overall in vitro antimicrobial and antiprotozoal screen; format: cell-based; details: for Activity against all other test organisms: fungi and bacteria other than S. aureus and MRS; for Antimicrobial or antiprotozoal activity (overall): all test organisms
Staphylococcus aureus = assay: Antibacterial susceptibility testing, modified CLSI method; format: cell-based; details: for IC50 Antibacterial S. aureus: 50% inhibition of bacterial growth; for IC50 against S. aureus and methicillin resistant S. aureus: range over both compounds and both strains (abstract)
[7] = lowest concentration that allows no detectable growth

Structure (SMILES): C[C@@H]1[C@H](O)[C@@H](C)/C=C/C=C/C=C/C=C/C=C/C=C/C=C/[C@H](O[C@@H]2O[C@H](C)[C@@H](O)[C@H](N)[C@@H]2O)C[C@@H]2O[C@](O)(C[C@@H](O)C[C@@H](O)[C@H](O)CC[C@@H](O)C[C@@H](O)CC(=O)O[C@H]1C)C[C@H](O)[C@H]2C(=O)O [Amphotericin B]
- IC50 [1]: 0.2 µg/mL (≈ 0.216 µM)
- IC90 [1]: 0.4 µg/mL (≈ 0.433 µM)
- IC50 Antifungal C. neoformans (Cryptococcus neoformans; 50% inhibition of fungal growth): 1.28 µg/mL (≈ 1.39 µM)
- MIC (Cryptococcus neoformans; Cryptococcus neoformans, read-out: MIC Antifungal C. neoformans): 2.5 µg/mL (≈ 2.71 µM)
- IC50 (A. fumigatus; read-out: IC50 Antifungal A. fumigatus): 0.98 µg/mL (≈ 1.06 µM)
- MIC (A. fumigatus; read-out: MIC Antifungal A. fumigatus): 2.5 µg/mL (≈ 2.71 µM)

Structure (SMILES): C[C@@H]1CC[C@H]2[C@@H](C)C(=O)O[C@@H]3O[C@@]4(C)CC[C@@H]1[C@]32OO4 [Artemisinin]
- IC50 [2]: 0.0065 µg/mL (≈ 0.023 µM)
- IC50 [3]: 0.01 µg/mL (≈ 0.0354 µM)

Structure (SMILES): CCN(CC)CCCC(C)Nc1ccnc2cc(Cl)ccc12 (stereo not shown) [Chloroquine]
- IC50 [2]: 0.12 µg/mL (≈ 0.375 µM)
- IC50 [3]: 0.015 µg/mL (≈ 0.0469 µM)

Structure (SMILES): O=C(O)c1cn(C2CC2)c2cc(N3CCNCC3)c(F)cc2c1=O [Ciprofloxacin]
- IC50 ([4]; Mycobacterium intracellulare, read-out: IC50 Antibacterial M. intracellulare): 0.39 µg/mL (≈ 1.18 µM)
- MIC ([4]; Mycobacterium intracellulare, read-out: MIC Antibacterial M. intracellulare): 0.5 µg/mL (≈ 1.51 µM)

Structure (SMILES): NC(=O)c1cc[n+](CCCBr)cc1.[Br-] [Compound 17]
- Antimalarial P. falciparum W2 Clone IC50 ([2]; chloroquine resistant clone): 4.0 µg/mL
- Antimalarial P. falciparum D6 Clone IC50 ([3]; chloroquine sensitive clone): 3.7 µg/mL

Structure (SMILES): ON=Cc1cccc[n+]1Cc1ccc(Br)s1.[Cl-] [Compound 21]
- Antileishmanial L. donovani IC50 [1]: 19 µg/mL
- Antileishmanial L. donovani IC90 [1]: 40 µg/mL
- IC50 Antifungal C. glabrata (C. glabrata): >20 µg/mL
- IC50 Antibacterial MRS [5]: 14.2 µg/mL and 14.19 µg/mL
- Activity against all other test organisms [6]: inactive
- IC50 Antibacterial S. aureus (Staphylococcus aureus): 15.3 µg/mL and 15.27 µg/mL
- IC50 against S. aureus and methicillin resistant S. aureus (Staphylococcus aureus): 12.2 to 17.7 µg/mL

Structure (SMILES): ON=Cc1cccc[n+]1Cc1csc2ccccc12.[Cl-] [Compound 24, 1-(Benzothiophene-3-yl)-methyl-2-hydroxyiminomethylpyridinium chloride]
- Antileishmanial L. donovani IC50 [1]: 18 µg/mL
- Antileishmanial L. donovani IC90 [1]: 40 µg/mL
- IC50 Antibacterial MRS [5]: 17.7 µg/mL and 17.72 µg/mL
- MIC Antibacterial MRS [5, 7]: 20 µg/mL
- Activity against all other test organisms [6]: inactive
- IC50 Antibacterial M. intracellulare ([4]; 50% inhibition of bacterial growth): >20 µg/mL
- IC50 Antibacterial S. aureus (Staphylococcus aureus): 12.2 µg/mL and 12.23 µg/mL
- MIC Antibacterial S. aureus (Staphylococcus aureus; [7]): 20 µg/mL
- IC50 against S. aureus and methicillin resistant S. aureus (Staphylococcus aureus): 12.2 to 17.7 µg/mL

Structure (SMILES): O/N=C/c1cc[n+](COC[n+]2ccc(/C=N/O)cc2)cc1 [Compound 37, obidoxime, reference compound]
- Antimicrobial or antiprotozoal activity (overall) [6]: completely devoid of any antimicrobial or antiprotozoal activities

Structure (SMILES): ON=Cc1cc[n+](CCC[n+]2ccc(/C=N/O)cc2)cc1 [Compound 42, trimedoxime, reference compound]
- Antimicrobial or antiprotozoal activity (overall) [6]: completely devoid of any antimicrobial or antiprotozoal activities

Structure (SMILES): N=C(N)c1ccc(OCCCCCOc2ccc(C(=N)N)cc2)cc1 [Pentamidine, reference compound]
- IC50 [1]: 1.2 µg/mL (≈ 3.52 µM)
- IC90 [1]: 5 µg/mL (≈ 14.7 µM)
